Measured values published in patent US9593122B2, “Substituted pyrazolylpyrazole derivative and use of same as herbicide” (KYOYU AGRI CO., LTD., priority 2013, dated 2017).

Tests used:
Experiment in all cases: Paddy herbicidal activity test
Assay type in all cases: in vivo
Scirpus juncoides = details: irrigated paddy pot, 30 days
Procedure: (§1) Rice paddy soil was filled into a 1/10000 are pot followed by the addition of suitable amounts of water and chemical fertilizer, kneading, seeding with Echinochloa crus-galli, Monochoria vaginalis and Scirpus juncoides and maintaining in an irrigated state at a water depth of 3 cm.
(§2) Wettable powder of Target Compound (I) shown in Table 1 prepared in compliance with the preparation examples were diluted with a suitable amount of water, rice plants in the 2.0 leaf stage were transplanted during 3.5 leaf stage of Echinochloa crus-galli, and treated by dropping in chemical in the prescribed amount per are using a pipette.
(§3) After treating for 30 days in a glass greenhouse at an average atmospheric temperature of 30° C., the herbicidal efficacy thereof was investigated.
(§4) Evaluation of herbicidal efficacy was carried out by comparing growth inhibition rate (%) with an untreated group, while evaluation of phytotoxicity was carried out by comparing growth inhibition rate (%) with the state of a complete eradication group, and were evaluated at 11 levels indicated below.

Echinochloa crus-galli = details: irrigated paddy pot, treated at 3.5 leaf stage of Echinochloa crus-galli, 30 days
Procedure: as §1, §2, §3, §4

Monochoria vaginalis = details: irrigated paddy pot, 30 days
Procedure: as §1, §2, §3, §4

SMILES | Scirpus juncoides herbicidal efficacy (growth inhibition level) (Scirpus juncoides; 1g a.i./10a) | Scirpus juncoides herbicidal efficacy (growth inhibition level) (Scirpus juncoides; 5g a.i./10a) | Echinochloa crus-galli herbicidal efficacy (growth inhibition level) (Echinochloa crus-galli; 1g a.i./10a) | Echinochloa crus-galli herbicidal efficacy (growth inhibition level) (Echinochloa crus-galli; 5g a.i./10a) | Monochoria vaginalis herbicidal efficacy (growth inhibition level) (Monochoria vaginalis; 1g a.i./10a) | Monochoria vaginalis herbicidal efficacy (growth inhibition level) (Monochoria vaginalis; 5g a.i./10a)
N#Cc1cnn(-c2nn3c(c2Cl)CCCC3)c1N(CCC(F)=C(F)F)C(=O)C(F)(F)F [Compound 20] | 8 (8: 80% to less than 90%) | 8 (8: 80% to less than 90%) | 9 (9: 90% to less than 100%) | 9 (9: 90% to less than 100%) | 8 (8: 80% to less than 90%) | 9 (9: 90% to less than 100%)
N#Cc1cnn(-c2nn3c(c2Br)CCCC3)c1NCC(Cl)=CCl (mixture of isomers) [Compound 46] | 7 (7: 70% to less than 80%) | 8 (8: 80% to less than 90%) | 7 (7: 70% to less than 80%) | 8 (8: 80% to less than 90%) | 7 (7: 70% to less than 80%) | 8 (8: 80% to less than 90%)
CC=CCNc1c([N+](=O)[O-])cnn1-c1nn2c(c1Br)CCCC2 (mixture of isomers) [Compound 57] | 7 (7: 70% to less than 80%) | 8 (8: 80% to less than 90%) | 9 (9: 90% to less than 100%) | 10 (10: 100%) | 8 (8: 80% to less than 90%) | 9 (9: 90% to less than 100%)
N#Cc1cnn(-c2nn3c(c2Cl)CCCC3)c1NCC(Cl)=CCl (mixture of isomers) [Compound 11] | 7 (7: 70% to less than 80%) | 8 (8: 80% to less than 90%) | 8 (8: 80% to less than 90%) | 9 (9: 90% to less than 100%) | 8 (8: 80% to less than 90%) | 9 (9: 90% to less than 100%)
N#Cc1cnn(-c2nn3c(c2Cl)CCCC3)c1NC/C=C\Cl [Compound 7] | 7 (7: 70% to less than 80%) | 8 (8: 80% to less than 90%) | 9 (9: 90% to less than 100%) | 9 (9: 90% to less than 100%) | 9 (9: 90% to less than 100%) | 9 (9: 90% to less than 100%)
C=CCCNc1c(C#N)cnn1-c1nn2c(c1Cl)CCCC2 [Compound 5] | 7 (7: 70% to less than 80%) | 8 (8: 80% to less than 90%) | 9 (9: 90% to less than 100%) | 10 (10: 100%) | 9 (9: 90% to less than 100%) | 9 (9: 90% to less than 100%)
N#Cc1cnn(-c2nn3c(c2Cl)CCCC3)c1N(CC(Cl)=CCl)C(=O)C(F)(F)F (mixture of isomers) [Compound 23] | 7 (7: 70% to less than 80%) | 8 (8: 80% to less than 90%) | 8 (8: 80% to less than 90%) | 9 (9: 90% to less than 100%) | 8 (8: 80% to less than 90%) | 9 (9: 90% to less than 100%)
C=C(C)CNc1c([N+](=O)[O-])cnn1-c1nn2c(c1Cl)CCCC2 [Compound 31] | 7 (7: 70% to less than 80%) | 8 (8: 80% to less than 90%) | 9 (9: 90% to less than 100%) | 9 (9: 90% to less than 100%) | 9 (9: 90% to less than 100%) | 9 (9: 90% to less than 100%)
C=CCN(C(=O)C(F)(F)F)c1c([N+](=O)[O-])cnn1-c1nn2c(c1Cl)CCCC2 [Compound 36] | 8 (8: 80% to less than 90%) | 9 (9: 90% to less than 100%) | 9 (9: 90% to less than 100%) | 10 (10: 100%) | 8 (8: 80% to less than 90%) | 9 (9: 90% to less than 100%)
O=C(N(C/C=C\Cl)c1c([N+](=O)[O-])cnn1-c1nn2c(c1Cl)CCCC2)C(F)(F)F [Compound 39] | 8 (8: 80% to less than 90%) | 8 (8: 80% to less than 90%) | 9 (9: 90% to less than 100%) | 10 (10: 100%) | 7 (7: 70% to less than 80%) | 8 (8: 80% to less than 90%)
CC=CCNc1c(C#N)cnn1-c1nn2c(c1Br)CCCC2 (mixture of isomers) [Compound 47] | 7 (7: 70% to less than 80%) | 8 (8: 80% to less than 90%) | 9 (9: 90% to less than 100%) | 10 (10: 100%) | 8 (8: 80% to less than 90%) | 9 (9: 90% to less than 100%)
CC=CCCN(C(=O)C(F)(F)F)c1c(C#N)cnn1-c1nn2c(c1Cl)CCCC2 (mixture of isomers) [Compound 26] | 7 (7: 70% to less than 80%) | 8 (8: 80% to less than 90%) | 9 (9: 90% to less than 100%) | 9 (9: 90% to less than 100%) | 8 (8: 80% to less than 90%) | 9 (9: 90% to less than 100%)
C=CCCNc1c(C#N)cnn1-c1nn2c(c1Br)CCCC2 [Compound 42] | 8 (8: 80% to less than 90%) | 8 (8: 80% to less than 90%) | 8 (8: 80% to less than 90%) | 9 (9: 90% to less than 100%) | 7 (7: 70% to less than 80%) | 8 (8: 80% to less than 90%)
CC(C)=CCNc1c([N+](=O)[O-])cnn1-c1nn2c(c1Cl)CCCC2 [Compound 35] | 8 (8: 80% to less than 90%) | 10 (10: 100%) | 9 (9: 90% to less than 100%) | 9 (9: 90% to less than 100%) | 9 (9: 90% to less than 100%) | 10 (10: 100%)
CC=CCNc1c([N+](=O)[O-])cnn1-c1nn2c(c1Cl)CCCC2 (mixture of isomers) [Compound 34] | 8 (8: 80% to less than 90%) | 8 (8: 80% to less than 90%) | 9 (9: 90% to less than 100%) | 9 (9: 90% to less than 100%) | 9 (9: 90% to less than 100%) | 9 (9: 90% to less than 100%)
N#Cc1cnn(-c2nn3c(c2Br)CCCC3)c1NC/C=C\Cl [Compound 45] | 9 (9: 90% to less than 100%) | 9 (9: 90% to less than 100%) | 9 (9: 90% to less than 100%) | 9 (9: 90% to less than 100%) | 9 (9: 90% to less than 100%) | 9 (9: 90% to less than 100%)
C=CCN(C(=O)C(F)(F)C(F)(F)F)c1c(C#N)cnn1-c1nn2c(c1Cl)CCCC2 [Compound 28] | 8 (8: 80% to less than 90%) | 9 (9: 90% to less than 100%) | 9 (9: 90% to less than 100%) | 9 (9: 90% to less than 100%) | 8 (8: 80% to less than 90%) | 10 (10: 100%)
